{"source": "the kinase profiling compilation of Christmann-Franck et al. (2016)", "assay_in_all_cases": "KINOMEscan competition binding", "conditions_in_all_cases": "compound 10.0 µM", "key": {"ACVR1B (human)": {"biological_target": "ACVR1B (human) (UniProt P36896)"}, "ADCK3 (human)": {"biological_target": "ADCK3 (human) (UniProt Q8NI60)"}, "AURKB (human)": {"biological_target": "AURKB (human) (UniProt Q96GD4)", "sequence (Q96GD4 whole entry, looked up)": "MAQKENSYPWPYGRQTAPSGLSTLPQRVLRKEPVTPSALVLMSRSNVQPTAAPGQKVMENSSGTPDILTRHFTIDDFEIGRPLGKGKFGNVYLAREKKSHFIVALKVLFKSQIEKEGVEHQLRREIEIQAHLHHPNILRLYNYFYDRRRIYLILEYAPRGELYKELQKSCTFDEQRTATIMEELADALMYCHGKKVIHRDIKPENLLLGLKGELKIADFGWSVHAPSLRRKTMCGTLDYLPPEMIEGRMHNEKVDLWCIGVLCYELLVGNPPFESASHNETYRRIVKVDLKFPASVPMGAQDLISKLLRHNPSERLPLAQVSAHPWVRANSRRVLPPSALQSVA"}, "[1]": {"tested_on": "BRAF (human), P15056 [V600E]"}, "BRSK1 (human)": {"biological_target": "BRSK1 (human) (UniProt Q8TDC3)"}, "CAMK4 (human)": {"biological_target": "CAMK4 (human) (UniProt Q16566)"}, "CDK11B (human)": {"biological_target": "CDK11B (human) (UniProt P21127)"}, "CDK2 (human)": {"biological_target": "CDK2 (human) (UniProt P24941)"}, "CHEK1 (human)": {"biological_target": "CHEK1 (human) (UniProt O14757)"}, "CHUK (human)": {"biological_target": "CHUK (human) (UniProt O15111)", "sequence (O15111 whole entry, looked up)": "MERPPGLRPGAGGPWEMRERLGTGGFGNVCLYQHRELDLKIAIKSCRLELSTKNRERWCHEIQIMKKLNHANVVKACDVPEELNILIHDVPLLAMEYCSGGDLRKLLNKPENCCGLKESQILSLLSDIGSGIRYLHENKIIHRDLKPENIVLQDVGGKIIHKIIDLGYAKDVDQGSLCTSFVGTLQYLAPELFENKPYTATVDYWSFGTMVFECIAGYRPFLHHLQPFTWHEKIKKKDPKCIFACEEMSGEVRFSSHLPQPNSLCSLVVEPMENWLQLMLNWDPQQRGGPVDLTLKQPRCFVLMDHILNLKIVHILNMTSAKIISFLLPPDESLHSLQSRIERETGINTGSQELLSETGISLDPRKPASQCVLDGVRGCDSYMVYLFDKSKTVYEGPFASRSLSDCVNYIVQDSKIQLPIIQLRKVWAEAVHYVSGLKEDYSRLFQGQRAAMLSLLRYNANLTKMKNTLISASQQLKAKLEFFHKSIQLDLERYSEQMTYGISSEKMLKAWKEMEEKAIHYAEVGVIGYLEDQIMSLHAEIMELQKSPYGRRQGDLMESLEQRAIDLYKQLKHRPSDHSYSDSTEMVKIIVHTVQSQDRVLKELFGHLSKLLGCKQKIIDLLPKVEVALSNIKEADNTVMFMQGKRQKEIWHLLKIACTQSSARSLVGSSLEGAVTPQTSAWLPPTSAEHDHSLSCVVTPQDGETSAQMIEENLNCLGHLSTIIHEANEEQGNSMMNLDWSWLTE"}, "CSF1R (human)": {"biological_target": "CSF1R (human) (UniProt P07333)"}, "CSNK1G2 (human)": {"biological_target": "CSNK1G2 (human) (UniProt P78368)"}, "ERBB2 (human)": {"biological_target": "ERBB2 (human) (UniProt P04626)"}, "FGFR2 (human)": {"biological_target": "FGFR2 (human) (UniProt P21802)"}, "FGFR3 (human)": {"biological_target": "FGFR3 (human) (UniProt P22607)"}, "FLT3 (human)": {"biological_target": "FLT3 (human) (UniProt P36888)", "sequence (P36888 whole entry, looked up)": "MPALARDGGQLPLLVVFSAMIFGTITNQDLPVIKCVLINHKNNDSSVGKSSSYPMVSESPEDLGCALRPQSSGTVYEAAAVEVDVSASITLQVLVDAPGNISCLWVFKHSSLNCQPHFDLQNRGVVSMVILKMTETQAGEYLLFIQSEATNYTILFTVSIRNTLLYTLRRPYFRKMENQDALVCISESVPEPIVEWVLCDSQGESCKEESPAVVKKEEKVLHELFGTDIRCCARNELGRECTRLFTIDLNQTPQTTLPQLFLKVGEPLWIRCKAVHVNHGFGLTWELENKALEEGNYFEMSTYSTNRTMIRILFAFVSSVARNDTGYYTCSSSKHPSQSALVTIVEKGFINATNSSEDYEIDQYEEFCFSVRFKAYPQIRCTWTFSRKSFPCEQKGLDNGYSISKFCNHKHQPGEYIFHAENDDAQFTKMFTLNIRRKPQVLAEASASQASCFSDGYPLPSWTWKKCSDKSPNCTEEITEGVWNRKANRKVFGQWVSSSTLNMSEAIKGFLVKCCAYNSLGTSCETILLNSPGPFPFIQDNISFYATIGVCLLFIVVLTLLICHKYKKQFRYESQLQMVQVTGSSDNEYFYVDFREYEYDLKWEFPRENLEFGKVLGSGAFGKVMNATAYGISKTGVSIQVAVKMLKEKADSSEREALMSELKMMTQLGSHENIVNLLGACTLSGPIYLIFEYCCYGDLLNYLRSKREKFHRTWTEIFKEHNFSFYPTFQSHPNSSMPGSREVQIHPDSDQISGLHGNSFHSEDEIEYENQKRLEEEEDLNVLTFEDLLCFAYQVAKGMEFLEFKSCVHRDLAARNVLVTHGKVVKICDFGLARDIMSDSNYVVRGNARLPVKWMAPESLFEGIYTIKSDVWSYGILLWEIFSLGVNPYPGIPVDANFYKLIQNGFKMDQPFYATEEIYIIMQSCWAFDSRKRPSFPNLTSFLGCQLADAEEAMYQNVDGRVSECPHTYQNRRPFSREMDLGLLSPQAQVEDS"}, "GAK (human)": {"biological_target": "GAK (human) (UniProt O14976)"}, "HCK (human)": {"biological_target": "HCK (human) (UniProt P08631)"}, "[2]": {"biological_target": "JAK2 JH1 catalytic (human) (UniProt O60674)", "sequence (O60674 whole entry, looked up)": "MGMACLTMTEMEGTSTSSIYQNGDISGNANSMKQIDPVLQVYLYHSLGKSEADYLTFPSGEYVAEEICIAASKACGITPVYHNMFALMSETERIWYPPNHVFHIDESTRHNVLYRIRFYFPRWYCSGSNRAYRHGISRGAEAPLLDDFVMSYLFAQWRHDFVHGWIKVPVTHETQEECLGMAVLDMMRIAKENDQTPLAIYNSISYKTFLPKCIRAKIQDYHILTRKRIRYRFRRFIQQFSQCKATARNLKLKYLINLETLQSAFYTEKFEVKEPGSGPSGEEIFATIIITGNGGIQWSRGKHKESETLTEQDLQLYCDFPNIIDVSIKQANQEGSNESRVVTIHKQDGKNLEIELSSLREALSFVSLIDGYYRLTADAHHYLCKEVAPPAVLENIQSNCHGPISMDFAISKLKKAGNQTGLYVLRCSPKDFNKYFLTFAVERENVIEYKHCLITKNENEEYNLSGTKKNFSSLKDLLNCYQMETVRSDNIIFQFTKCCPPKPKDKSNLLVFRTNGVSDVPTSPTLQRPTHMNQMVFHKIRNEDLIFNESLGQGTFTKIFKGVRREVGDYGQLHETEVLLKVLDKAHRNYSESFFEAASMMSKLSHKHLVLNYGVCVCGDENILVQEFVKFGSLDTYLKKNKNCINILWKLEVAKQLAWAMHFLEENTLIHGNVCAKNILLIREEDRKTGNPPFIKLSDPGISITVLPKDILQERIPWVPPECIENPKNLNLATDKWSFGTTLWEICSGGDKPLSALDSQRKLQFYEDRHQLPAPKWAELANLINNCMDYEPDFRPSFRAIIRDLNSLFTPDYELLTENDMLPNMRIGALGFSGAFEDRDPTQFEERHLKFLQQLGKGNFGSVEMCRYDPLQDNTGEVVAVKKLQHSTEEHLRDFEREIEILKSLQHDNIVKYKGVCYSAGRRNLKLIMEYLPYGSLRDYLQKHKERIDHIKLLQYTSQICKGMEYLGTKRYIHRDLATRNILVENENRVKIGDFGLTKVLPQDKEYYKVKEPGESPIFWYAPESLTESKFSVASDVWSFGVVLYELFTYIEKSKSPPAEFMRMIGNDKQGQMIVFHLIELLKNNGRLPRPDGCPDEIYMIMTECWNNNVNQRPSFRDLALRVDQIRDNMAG"}, "MAP2K2 (human)": {"biological_target": "MAP2K2 (human) (UniProt P36507)"}, "MAP3K12 (human)": {"biological_target": "MAP3K12 (human) (UniProt Q12852)"}, "MAP3K13 (human)": {"biological_target": "MAP3K13 (human) (UniProt O43283)"}, "MAP3K14 (human)": {"biological_target": "MAP3K14 (human) (UniProt Q99558)"}, "MAPKAPK2 (human)": {"biological_target": "MAPKAPK2 (human) (UniProt P49137)"}, "MARK3 (human)": {"biological_target": "MARK3 (human) (UniProt P27448)"}, "MKNK2 (human)": {"biological_target": "MKNK2 (human) (UniProt Q9HBH9)"}, "PAK1 (human)": {"biological_target": "PAK1 (human) (UniProt Q13153)"}, "PAK2 (human)": {"biological_target": "PAK2 (human) (UniProt Q13177)"}, "PIK3CG (human)": {"biological_target": "PIK3CG (human) (UniProt P48736)", "sequence (P48736 whole entry, looked up)": "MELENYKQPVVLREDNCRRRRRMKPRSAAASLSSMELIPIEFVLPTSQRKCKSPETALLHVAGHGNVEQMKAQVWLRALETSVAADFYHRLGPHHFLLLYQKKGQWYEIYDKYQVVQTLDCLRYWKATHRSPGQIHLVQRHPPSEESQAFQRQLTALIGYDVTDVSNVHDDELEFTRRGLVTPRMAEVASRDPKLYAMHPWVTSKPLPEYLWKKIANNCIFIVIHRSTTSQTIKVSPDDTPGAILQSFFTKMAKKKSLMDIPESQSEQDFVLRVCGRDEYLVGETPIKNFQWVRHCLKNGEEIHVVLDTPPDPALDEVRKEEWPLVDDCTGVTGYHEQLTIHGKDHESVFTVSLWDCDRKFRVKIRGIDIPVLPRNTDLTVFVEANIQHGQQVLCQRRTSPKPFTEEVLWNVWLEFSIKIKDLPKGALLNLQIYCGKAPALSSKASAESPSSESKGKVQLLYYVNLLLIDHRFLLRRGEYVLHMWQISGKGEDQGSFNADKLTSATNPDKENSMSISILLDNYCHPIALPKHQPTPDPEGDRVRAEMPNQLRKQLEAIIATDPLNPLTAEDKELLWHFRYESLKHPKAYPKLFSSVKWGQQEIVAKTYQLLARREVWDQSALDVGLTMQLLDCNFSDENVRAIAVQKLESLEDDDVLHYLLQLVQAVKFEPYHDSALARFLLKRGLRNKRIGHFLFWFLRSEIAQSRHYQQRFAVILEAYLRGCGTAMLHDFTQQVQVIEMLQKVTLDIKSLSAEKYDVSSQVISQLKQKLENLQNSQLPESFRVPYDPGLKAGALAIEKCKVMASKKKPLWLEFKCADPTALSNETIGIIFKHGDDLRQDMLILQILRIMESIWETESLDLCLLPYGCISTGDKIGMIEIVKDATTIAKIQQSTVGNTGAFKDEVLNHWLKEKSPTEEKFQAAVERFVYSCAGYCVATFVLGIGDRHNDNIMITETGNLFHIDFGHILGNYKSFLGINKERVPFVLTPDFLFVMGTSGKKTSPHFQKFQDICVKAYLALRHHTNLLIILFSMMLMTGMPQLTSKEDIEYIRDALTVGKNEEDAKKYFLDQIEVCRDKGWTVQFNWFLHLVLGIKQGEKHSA"}, "PIM2 (human)": {"biological_target": "PIM2 (human) (UniProt Q9P1W9)"}, "PLK1 (human)": {"biological_target": "PLK1 (human) (UniProt P53350)"}, "PLK4 (human)": {"biological_target": "PLK4 (human) (UniProt O00444)"}, "PRKCE (human)": {"biological_target": "PRKCE (human) (UniProt Q02156)", "sequence (Q02156 whole entry, looked up)": "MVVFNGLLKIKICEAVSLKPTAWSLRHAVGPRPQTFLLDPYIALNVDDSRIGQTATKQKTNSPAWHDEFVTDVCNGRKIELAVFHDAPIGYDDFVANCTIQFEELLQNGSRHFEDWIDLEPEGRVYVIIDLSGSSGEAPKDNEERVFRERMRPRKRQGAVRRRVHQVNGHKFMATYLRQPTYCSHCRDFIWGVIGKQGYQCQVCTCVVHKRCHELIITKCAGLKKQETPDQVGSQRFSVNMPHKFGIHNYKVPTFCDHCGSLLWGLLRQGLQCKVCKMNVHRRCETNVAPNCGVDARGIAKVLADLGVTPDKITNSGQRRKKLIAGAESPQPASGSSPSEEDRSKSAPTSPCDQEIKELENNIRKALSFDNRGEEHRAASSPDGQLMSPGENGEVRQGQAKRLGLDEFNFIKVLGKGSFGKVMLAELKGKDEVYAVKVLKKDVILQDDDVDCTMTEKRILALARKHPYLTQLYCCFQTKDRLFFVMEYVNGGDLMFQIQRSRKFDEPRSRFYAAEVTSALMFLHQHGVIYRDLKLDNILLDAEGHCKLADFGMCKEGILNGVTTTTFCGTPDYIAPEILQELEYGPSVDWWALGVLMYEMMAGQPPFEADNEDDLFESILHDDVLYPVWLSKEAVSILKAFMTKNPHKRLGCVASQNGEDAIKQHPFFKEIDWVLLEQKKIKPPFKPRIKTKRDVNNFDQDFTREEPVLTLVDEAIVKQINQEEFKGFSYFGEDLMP"}, "RAF1 (human)": {"biological_target": "RAF1 (human) (UniProt P04049)"}, "RET (human)": {"biological_target": "RET (human) (UniProt P07949)"}, "RPS6KB1 (human)": {"biological_target": "RPS6KB1 (human) (UniProt P23443)"}, "SGK1 (human)": {"biological_target": "SGK1 (human) (UniProt O00141)"}, "STK16 (human)": {"biological_target": "STK16 (human) (UniProt O75716)"}, "TGFBR1 (human)": {"biological_target": "TGFBR1 (human) (UniProt P36897)"}, "TSSK1B (human)": {"biological_target": "TSSK1B (human) (UniProt Q9BXA7)"}, "WNK1 (human)": {"biological_target": "WNK1 (human) (UniProt Q9H4A3)"}}, "data": [{"smiles": "O=C(Nc1ccc(Oc2ncnc3[nH]ncc23)cc1)Nc1ccc(Cl)c(C(F)(F)F)c1", "values": [{"measurement": "kinase still bound, per cent of control", "setting": "ACVR1B (human)", "result": 100, "unit": "%"}, {"measurement": "kinase still bound, per cent of control", "setting": "ADCK3 (human)", "result": 100, "unit": "%"}, {"measurement": "kinase still bound, per cent of control", "setting": "AURKB (human)", "result": 4.7, "unit": "%"}, {"measurement": "kinase still bound, per cent of control", "setting": "[1]", "result": 0.55, "unit": "%"}, {"measurement": "kinase still bound, per cent of control", "setting": "BRSK1 (human)", "result": 86, "unit": "%"}, {"measurement": "kinase still bound, per cent of control", "setting": "CAMK4 (human)", "result": 100, "unit": "%"}, {"measurement": "kinase still bound, per cent of control", "setting": "CDK11B (human)", "result": 69, "unit": "%"}, {"measurement": "kinase still bound, per cent of control", "setting": "CDK2 (human)", "result": 64, "unit": "%"}, {"measurement": "kinase still bound, per cent of control", "setting": "CHEK1 (human)", "result": 100, "unit": "%"}, {"measurement": "kinase still bound, per cent of control", "setting": "CHUK (human)", "result": 51, "unit": "%"}, {"measurement": "kinase still bound, per cent of control", "setting": "CSF1R (human)", "result": 0.3, "unit": "%"}, {"measurement": "kinase still bound, per cent of control", "setting": "CSNK1G2 (human)", "result": 94, "unit": "%"}, {"measurement": "kinase still bound, per cent of control", "setting": "ERBB2 (human)", "result": 100, "unit": "%"}, {"measurement": "kinase still bound, per cent of control", "setting": "FGFR2 (human)", "result": 51, "unit": "%"}, {"measurement": "kinase still bound, per cent of control", "setting": "FGFR3 (human)", "result": 80, "unit": "%"}, {"measurement": "kinase still bound, per cent of control", "setting": "FLT3 (human)", "result": 0, "unit": "%"}, {"measurement": "kinase still bound, per cent of control", "setting": "GAK (human)", "result": 90, "unit": "%"}, {"measurement": "kinase still bound, per cent of control", "setting": "HCK (human)", "result": 32, "unit": "%"}, {"measurement": "kinase still bound, per cent of control", "setting": "[2]", "result": 80, "unit": "%"}, {"measurement": "kinase still bound, per cent of control", "setting": "MAP2K2 (human)", "result": 60, "unit": "%"}, {"measurement": "kinase still bound, per cent of control", "setting": "MAP3K12 (human)", "result": 100, "unit": "%"}, {"measurement": "kinase still bound, per cent of control", "setting": "MAP3K13 (human)", "result": 92, "unit": "%"}, {"measurement": "kinase still bound, per cent of control", "setting": "MAP3K14 (human)", "result": 97, "unit": "%"}, {"measurement": "kinase still bound, per cent of control", "setting": "MAPKAPK2 (human)", "result": 100, "unit": "%"}, {"measurement": "kinase still bound, per cent of control", "setting": "MARK3 (human)", "result": 75, "unit": "%"}, {"measurement": "kinase still bound, per cent of control", "setting": "MKNK2 (human)", "result": 0.05, "unit": "%"}, {"measurement": "kinase still bound, per cent of control", "setting": "PAK1 (human)", "result": 86, "unit": "%"}, {"measurement": "kinase still bound, per cent of control", "setting": "PAK2 (human)", "result": 97, "unit": "%"}, {"measurement": "kinase still bound, per cent of control", "setting": "PIK3CG (human)", "result": 98, "unit": "%"}, {"measurement": "kinase still bound, per cent of control", "setting": "PIM2 (human)", "result": 100, "unit": "%"}, {"measurement": "kinase still bound, per cent of control", "setting": "PLK1 (human)", "result": 100, "unit": "%"}, {"measurement": "kinase still bound, per cent of control", "setting": "PLK4 (human)", "result": 52, "unit": "%"}, {"measurement": "kinase still bound, per cent of control", "setting": "PRKCE (human)", "result": 86, "unit": "%"}, {"measurement": "kinase still bound, per cent of control", "setting": "RAF1 (human)", "result": 1, "unit": "%"}, {"measurement": "kinase still bound, per cent of control", "setting": "RET (human)", "result": 0, "unit": "%"}, {"measurement": "kinase still bound, per cent of control", "setting": "RPS6KB1 (human)", "result": 69, "unit": "%"}, {"measurement": "kinase still bound, per cent of control", "setting": "SGK1 (human)", "result": 88, "unit": "%"}, {"measurement": "kinase still bound, per cent of control", "setting": "STK16 (human)", "result": 100, "unit": "%"}, {"measurement": "kinase still bound, per cent of control", "setting": "TGFBR1 (human)", "result": 93, "unit": "%"}, {"measurement": "kinase still bound, per cent of control", "setting": "TSSK1B (human)", "result": 86, "unit": "%"}, {"measurement": "kinase still bound, per cent of control", "setting": "WNK1 (human)", "result": 100, "unit": "%"}]}]}
